According to publication PMC12833730, “Discovery of a First‐in‐Class Covalent Allosteric SHP1 Inhibitor with Immunotherapeutic Activity” (Angewandte Chemie (International Ed. in English), 2025):
“Also recorded” adds a separate entry of the source.

System: MC38 tumors
Assay: CD8+ T cell / NK cell depletion in MC38 syngeneic model
Type: in vivo, C57BL/6 mice
Text: To further establish whether the inhibitory effects of M029 on tumor progression could be attributable to enhanced antitumor immune responses, we treated MC38 tumors in nude mice. […] To evaluate the importance of CD8^+ T and NK cells in M029‐induced antitumor activity, we induced CD8^+ T cell or NK cell depletion in the MC38 syngeneic model using anti‐CD8 or anti‐NK1.1 antibodies as described in Figure 6c. […] These findings are consistent with the known role of SHP1 in T cells and with our in vitro data that indicate M029 enhances T cell activation with no direct effect on tumor cells. […] These findings align with previous reports that activated CD8^+ T cells recruit NK cells to tumors through releasing cytokines and chemokines like IFN‐γ.^[ [92] ^] The observed changes in immune activity induced by M029, such as increased tumor infiltration of cytotoxic CD8^+ T cells, enhanced T cell cytotoxicity and effector function, as well as improved NK cell infiltration and activation, collectively contribute to the anticancer effects exerted by M029 treatment.
Figure 6 Cytotoxic T‐cell activity is necessary for M029 antitumor activity. […] C57BL/6 mice were injected with anti‐CD8 or anti‐NK1.1 antibodies every 3–4 days for 8 days after tumor inoculation. Mice were orally dosed with M029 or control vehicle every day for 10 days after tumor inoculation at the same time (Control, n = 4; M029, n = 6; M029 + anti‐NK1.1, n = 6; M029 + anti‐CD8, n = 6). […] This difference implied that the CD8^+ T cells were critical to induce the NK cell infiltration in M029‐treated mice, and the depletion of CD8^+ T cells diminished M029's efficacy because of the absence of activated T cells and infiltrated NK cells. Statistical analyses were performed with Graphpad Prism software 10.4.2 through the student t test or the one‐way ANOVA test using Turkey post‐hoc comparison. *p < 0.05, **p < 0.01, ***p < 0.001, and ****p < 0.0001 were considered significant. Figures are plotted as average ± standard error of the mean (SEM).
Figure S6. Representative flow cytometry results of CD8^+ T/NK cell depletion studies. In the control group and the M029-treated group, CD8^+ T cells make up ~7% of immune cells and NK cells make up ~2% of immune cells. For mice treated with anti-NK1.1 antibody, the NK cell population is negligible (<0.1%). For mice treated with anti-CD8^+ antibody, the CD8^+ T cell population dropped to ~0.1%.
For immune cell profiling in the tumor microenvironment, tumor samples were first reduced to single-cell suspensions by compressing the tumors through a 70 µm filter (Falcon, #352350) into cold 1× PBS supplemented with 5 mM EDTA using the plunger of a syringe (HSW, #4010-200V0). Samples were strained through a second filter and then re-suspended in cold blocking buffer made of 5% BSA, 0.5 mM EDTA, and a 1:1000 dilution of CD16/32. Samples were then incubated with following fluorophore-conjugated antibodies. […]

N#Cc1ccsc1NS(=O)(=O)c1ccc(NC(=O)CCl)cc1 [M029, 2-Chloro-N-(4-(N-(3-cyanothiophen-2-yl)sulfamoyl)phenyl)acetamide]
M029-induced NK cell tumor infiltration after CD8+ T cell depletion (M029 + anti-CD8): abolishment of the increase in NK cell tumor infiltration
CD8+ T cell population of immune cells (flow cytometry, Figure S6): ~ 7%
NK cell population of immune cells (flow cytometry, Figure S6): ~ 2%
antitumor efficacy in CD8+ T-cell-depleted mice (oral M029 + anti-CD8): no antitumor efficacy; also recorded: completely abolished
antitumor effects in NK cell-depleted mice (oral M029 + anti-NK1.1): remained unaffected; also recorded: did not impact
